Common to all, as to assay type: cell-based
The subject of experiment [1] is Methicillin-sensitive Staphylococcus aureus (MSSA NRS-107). Kind of experiment: MBC by plating from MIC wells. Conditions: 99.9% reduction in CFU, read-out: MBC MSSA NRS-107. An excerpt: (§1) Based upon the initial results obtained, the active compounds were further screened against additional clinical isolates of methicillin-sensitive S. aureus (MSSA), methicillin-resistant S. aureus (MRSA), vancomycin-resistant S. aureus (VRSA), Staphylococcus epidermidis, vancomycin-resistant Enterococcus faecium (VRE), vancomycin-resistant Enterococcus faecalis (VRE) and Streptococcus pneumoniae, as presented in Table 2. Additionally, we examined whether the compounds were bacteriostatic (inhibit bacteria from growing) or bactericidal (kill bacteria) by determining the minimum bactericidal concentration (MBC). The MBC was determined by plating 5 μL from each well where no growth was present (in the MIC plates) onto tryptic soya agar plates and incubating plates at 37° C. for 24 hours. The MBC was categorized as the lowest concentration that generated a 99.9% reduction in bacterial colony-forming units (Table 3).

Experiment [2] deals with Staphylococcus epidermidis (NRS-101). The experiment is described as follows: MBC by plating from MIC wells. Conditions: NRS101, 99.9% reduction in CFU, read-out: MBC S. epidermidis NRS 101.
Source text: as §1

Experiment [3] has as its system Listeria monocytogenes ATCC-19111. Kind of experiment: MBC by plating from MIC wells. Conditions: ATCC19111, 99.9% reduction in CFU, read-out: MBC L. monocytogenes ATCC-19111.
Source text: as §1

Experiment [4] relates to Vancomycin-resistant Enterococcus fecalis ATCC-51299 (VRE ATCC-51299). The experiment is described as follows: MBC by plating from MIC wells. Conditions: 99.9% reduction in CFU, read-out: MBC VRE ATCC-51299.
Source text: as §1

In experiment [5] the test system is Vancomycin-resistant Staphylococcus aureus (VRSA12). Kind of experiment: MBC by plating from MIC wells. Conditions: 99.9% reduction in CFU, read-out: MBC VRSA12.
Source text: as §1

Experiment [6] concerns Vancomycin-resistant Staphylococcus aureus (VRSA10). Kind of experiment: MBC by plating from MIC wells. Conditions: 99.9% reduction in CFU, read-out: MBC VRSA10.
Source text: as §1

In experiment [7] the test system is Methicillin-resistant Staphylococcus aureus (MRSA NRS-119). Kind of experiment: MBC by plating from MIC wells. Conditions: 99.9% reduction in CFU, read-out: MBC MRSA NRS119.
Source text: as §1

The subject of experiment [8] is Vancomycin-resistant Enterococcus faecium ATCC-700221 (VRE ATCC-700221). The experiment is described as follows: MBC by plating from MIC wells. Conditions: 99.9% reduction in CFU; read-out: MBC VRE ATCC-700221.
Source text: as §1

In experiment [9] the test system is Cephalosporin-resistant Streptococcus pneumoniae ATCC-700677. The experiment is described as follows: MIC of active MY compounds. Conditions: ATCC700677, read-out: MIC S. pneumoniae ATCC 700677.
Source text: as §1
(§2) The minimum inhibitory concentrations (MICs) of the tested compounds and control drugs; linezolid, vancomycin, gentamicin (antibiotics) and fluconazole and 5-fluorocytosine (5-FC) (antifungal drugs) were determined using the broth microdilution method, according to guidelines outlined by the Clinical and Laboratory Standards Institute (CLSI)^1, 2, 3 against clinically-relevant bacterial (methicillin-resistant Staphylococcus aureus (MRSA), Escherichia coli and Clostridium difficile strains) and fungal (Candida albicans) strain. S. aureus and E. coli were grown aerobically overnight on tryptone soy agar plates at 37° C. C. difficile was grown anaerobically on brain heart infusion supplemented agar at 37° C. for 48 hours. C. albicans was grown aerobically overnight on yeast peptone dextrose (YPD) agar plate at 35° C. Afterwards, a bacterial solution equivalent to 0.5 McFarland standard was prepared and diluted in cation-adjusted Mueller-Hinton broth (CAMHB) (for S. aureus and E. coli) to achieve a bacterial concentration of about 5×10^5 CFU/mL. C. difficile was diluted in brain heart infusion supplemented broth, supplemented with yeast extract, hemin and vitamin K to achieve a bacterial concentration of about 5×10^5 CFU/mL. C. albicans was diluted in Roswell Park Memorial Institute (RPMI 1640) medium with glutamine and without bicarbonate (GIBCO by Life Technologies, Green Island, N.Y., USA) which was buffered to pH 7.0 with 0.165 M of [3-(N-morpholino) propanesulfonic acid] (MOPS) (dot scientific inc., Burton, Mich., USA) to achieve a fungal concentration of about 1.5×10^3 CFU/mL. Compounds and control drugs were added in the first row of the 96-well plates and serially diluted with the corresponding media containing bacteria/fungi. Plates were then, incubated aerobically at 37° C. for 18-20 hours (for S. aureus and E. coli). C. difficile was incubated anaerobically at 37° C. for 48 hours. C. albicans was incubated aerobically at 37° C. for 24 hours.

In experiment [10] the test system is Cephalosporin-resistant Streptococcus pneumoniae ATCC-15916. Kind of experiment: MIC of active MY compounds. Conditions: ATCC15916, read-out: MIC S. pneumoniae ATCC-15916.
Source text: as §1, §2

Experiment [11] concerns Methicillin-sensitive Staphylococcus aureus (MSSA NRS-107). The experiment is described as follows: MIC of active MY compounds. Conditions: read-out: MIC MSSA NRS-107.
Source text: as §1, §2

For experiment [12], the system named is Staphylococcus epidermidis (NRS-101). The experiment is described as follows: MIC of active MY compounds. Conditions: NRS101, read-out: MIC S. epidermidis NRS 101.
Source text: as §1, §2

In experiment [13] the test system is Vancomycin-resistant Enterococcus fecalis ATCC-51299 (VRE ATCC-51299). Kind of experiment: MIC of active MY compounds. Conditions: read-out: MIC VRE ATCC-51299.
Source text: as §1, §2

Experiment [14] concerns Vancomycin-resistant Staphylococcus aureus (VRSA12). The experiment is described as follows: MIC of active MY compounds. Conditions: read-out: MIC VRSA12.
Source text: as §1, §2

Experiment [15] deals with Vancomycin-resistant Staphylococcus aureus (VRSA10). The experiment is described as follows: MIC of active MY compounds. Conditions: read-out: MIC VRSA10.
Source text: as §1, §2

Experiment [16] has as its system Methicillin-resistant Staphylococcus aureus (MRSA NRS-123, USA400). Kind of experiment: MIC of active MY compounds. Conditions: read-out: MIC MRSA NRS123 (USA400).
Source text: as §1, §2

The test system of experiment [17] is Methicillin-resistant Staphylococcus aureus (MRSA NRS-119). The experiment is described as follows: MIC of active MY compounds. Conditions: read-out: MIC MRSA NRS119.
Source text: as §1, §2

Experiment [18] relates to Methicillin-sensitive Staphylococcus aureus ATCC-6538 (MSSA ATCC-6538). The experiment is described as follows: MIC of active MY compounds. Conditions: read-out: MIC MSSA ATCC-6538.
Source text: as §1, §2

In experiment [19] the test system is Vancomycin-resistant Enterococcus faecium ATCC-700221 (VRE ATCC-700221). The experiment is described as follows: MIC of active MY compounds. Conditions: read-out: MIC VRE ATCC-700221.
Source text: as §1, §2

The test system of experiment [20] is Listeria monocytogenes ATCC-19111. Kind of experiment: MIC of active MY compounds. Conditions: ATCC19111, read-out: MIC L. monocytogenes ATCC-19111.

Our source for the MBC and MIC values is patent publication US11648248B1 (King Abdulaziz University, priority 2022, dated 2023).

Structures are written as SMILES. ≈ marks a conversion by molar mass, not a printed value.

For orientation: MBC means the lowest tested concentration that kills the bacteria rather than only halting them. Usually MIC stands for the smallest concentration in the dilution series that meets the test's criterion for growth inhibition. With `O=C(Nc1ccc(Oc2ccc(=O)[nH]n2)cc1)Nc1ccc(Cl)c(C(F)(F)F)c1` [MY31, 1-(4-chloro-3-(trifluoromethyl)phenyl)-3-(4-((6-oxo-1,6-dihydropyridazin-3-yl)oxy)phenyl)urea], the MBC in experiment [1] was 2 µg/mL (≈ 4.71 µM); in experiment [2], 1 µg/mL (≈ 2.35 µM); in [3], more than 64 µg/mL; in experiment [4] it was more than 64 µg/mL; in [5] it was more than 64 µg/mL; in experiment [6], more than 64 µg/mL. In addition, the MBC in [7] is 2 µg/mL (≈ 4.71 µM); in experiment [8] it was 4 µg/mL (≈ 9.42 µM). Further, the MIC in experiment [9] was 0.5 µg/mL; in experiment [10], 0.5 µg/mL; in experiment [11], 0.5 µg/mL; in experiment [12], 0.5 µg/mL; in [13], 2 µg/mL; in [14] it was 1 µg/mL. Also, the MIC in experiment [15] came out at 0.5 µg/mL; in experiment [16], 0.5 µg/mL; in experiment [17], 0.5 µg/mL; in [18], 0.5 µg/mL; in experiment [19], 1 µg/mL; in experiment [20], 0.5 µg/mL.
With `CNC(=O)c1cc(Oc2ccc(NC(=O)Nc3ccc(Cl)c(C(F)(F)F)c3)cc2)ccn1` [Sorafenib, reference compound], the MBC in experiment [1], in [2], in experiment [3], in [4], in [5] and in [6] was more than 64 µg/mL each time. The minimal bactericidal concentration (MBC) in experiment [7] and in [8] was more than 64 µg/mL in each case. The MIC in experiment [9] was 4 µg/mL; in [10], 4 µg/mL; in experiment [11] it was 8 µg/mL; in experiment [12] it was 8 µg/mL; in [13], more than 64 µg/mL; in experiment [14] it was 2 µg/mL. Moreover, the MIC in experiment [15] is 4 µg/mL; in [16], 4 µg/mL; in experiment [17], 2 µg/mL; in experiment [18], 4 µg/mL; in [19], more than 64 µg/mL; in experiment [20], 4 µg/mL.
`O=C(Nc1ccc(-c2ccc(=O)[nH]n2)cc1)Nc1ccc(Cl)c(Cl)c1` [MY21, 1-(3,4-dichlorophenyl)-3-(4-(6-oxo-1,6-dihydropyridazin-3-yl)phenyl)urea]: the MBC is 4 µg/mL (≈ 10.7 µM) in experiment [1]; 4 µg/mL (≈ 10.7 µM) in experiment [2]; 0.5 µg/mL (≈ 1.33 µM) in [3]; 16 µg/mL (≈ 42.6 µM) in [4]; 8 µg/mL (≈ 21.3 µM) in experiment [5]; 2 µg/mL (≈ 5.33 µM) in experiment [6]. Also, the values for the MBC in experiment [7] and in [8] were 1 µg/mL (≈ 2.67 µM) and 4 µg/mL (≈ 10.7 µM), respectively. Besides, the MIC in [9] came to 2 µg/mL; in experiment [10], 2 µg/mL; in experiment [11] it was 1 µg/mL; in [12], 1 µg/mL; in experiment [13], 4 µg/mL; in experiment [14], 1 µg/mL. Besides, the MIC in experiment [15] stood at 1 µg/mL; in experiment [16], 1 µg/mL; in experiment [17] it was 1 µg/mL; in experiment [18], 1 µg/mL; in experiment [19] it was 2 µg/mL; in experiment [20], 0.5 µg/mL.
As to `O=C(Nc1cccc(Nc2ccc(Cl)nn2)c1)Nc1ccc(Cl)c(Cl)c1` [MY14, 1-(3-((6-chloropyridazin-3-yl)amino)phenyl)-3-(3,4-dichlorophenyl)urea], the minimal bactericidal concentration (MBC) in experiment [1] is 8 µg/mL (≈ 19.6 µM); in experiment [2] it was 64 µg/mL (≈ 157 µM); in experiment [3], more than 64 µg/mL; in experiment [4] it was more than 64 µg/mL; in experiment [5] it was 32 µg/mL (≈ 78.3 µM); in [6], 8 µg/mL (≈ 19.6 µM). Further, the minimum bactericidal concentration (MBC) in [7] is 8 µg/mL (≈ 19.6 µM); in experiment [8], more than 64 µg/mL. Moreover, the MIC in experiment [9] stood at 4 µg/mL; in [10], 4 µg/mL; in experiment [11], 4 µg/mL; in experiment [12] it was 8 µg/mL; in experiment [13] it was 64 µg/mL; in [14] it was 4 µg/mL. Besides, the MIC in experiment [15] worked out at 2 µg/mL; in experiment [16], 4 µg/mL; in experiment [17], 4 µg/mL; in experiment [18] it was 2 µg/mL; in experiment [19] it was 32 µg/mL; in experiment [20], 8 µg/mL.
As to `O=C(Nc1ccc(Oc2ccc(=O)[nH]n2)cc1)Nc1ccc(Cl)c(Cl)c1` [MY24, 1-(3,4-dichlorophenyl)-3-(4-((6-oxo-1,6-dihydropyridazin-3-yl)oxy)phenyl)urea], the MBC in experiment [1] was 16 µg/mL (≈ 40.9 µM); in experiment [2], 8 µg/mL (≈ 20.4 µM); in [3], 64 µg/mL (≈ 164 µM); in [4] it was more than 64 µg/mL; in experiment [5], more than 64 µg/mL; in [6] it was more than 64 µg/mL. The values for the MBC in experiment [7] and in experiment [8] were 32 µg/mL (≈ 81.8 µM) and 16 µg/mL (≈ 40.9 µM), respectively. For the same compound, the MIC in experiment [9] was found to be 2 µg/mL; in [10], 2 µg/mL; in experiment [11], 1 µg/mL; in experiment [12], 1 µg/mL; in experiment [13] it was 4 µg/mL; in [14] it was 2 µg/mL. Also, the MIC is 1 µg/mL in experiment [15]; 1 µg/mL in [16]; 1 µg/mL in experiment [17]; 1 µg/mL in experiment [18]; 4 µg/mL in experiment [19]; 1 µg/mL in experiment [20].
